The record followed here is paper PMC5458211, “Mitochondrial VDAC1-based peptides: Attacking oncogenic properties in glioblastoma” (Oncotarget, 2017).

Non-standard residues stand in square brackets, D forms with d. Residues, ends and D or L forms follow the SMILES beside them. Bounds are passed on as bounds.

The test system of one test is LN-18 cells. The test is described as follows: Cell death by PI staining and flow cytometry, LN-18. The class given is cell-based, human. To be noted: 6 h at 37°C, serum-free medium, means ± SD (n=3), Fig 1H, read-out: IC50 for inducing cell death. From the text:
Figure 1 VDAC1-based peptides induce dramatic cell death of several brain tumor-derived cell lines but to lesser extent in primary brain cells A. IHC staining of VDAC1 of human normal brain (n=13) or glioblastoma (n=41) in tissue array slides (Biomax), as described in Materials and methods available online in Supplemental information. Percentages of sections stained at the intensity indicated are shown. […] The VDAC1-derived sequences Δ(1-14)N-terminus and LP4 are in green and pink, respectively. The cell-penetrating peptides Antp and Tf are in orange and blue, respectively. The loop shape of LP4 stabilized by a tryptophan zipper is in purple. The amino acids of Δ(1-14)N-terminus, LP4 and Antp are in the D configuration. The sequences of D-LP4 and Retro-D-LP4 are presented below. C. […] Cells were harvested, washed twice with PBS and cell death was analyzed by propidium iodide (PI) staining and flow cytometry. […] Cells were harvested, washed twice with PBS and cell death was analyzed by PI staining and flow cytometry. […]
Cells (6×10^5 /ml) were incubated in 500 μl serum-free medium with the peptide of interest for 6 h at 37°C in the presence of 5% CO2. The cells were then trypsinized, centrifuged (1500xg, 5 min), washed with PBS and analyzed for cell death using propidium iodide (PI) staining and flow cytometer (Beckton-Dickinson, San Jose, CA) and BD CellQuest Pro software. […]
(Flow cytometry measures light scatter and fluorescence of single cells or particles in a stream.)

Test [1] concerns apoptosis-related proteins. The test is described as follows: Expression of apoptosis-related proteins in treated tumors (IHC, immunoblot). The class given is in vivo, human U-87MG in nude mice. The conditions noted are these: treated tumors vs PBS/DMSO. From the text: Red color indicates PI nuclear staining and green color TUNEL staining. B. Representative sections from PBS/DMSO- and peptide-TTs IHC stained for p53, Cyto c, AIF, Caspase 3 and Smac/Diablo and then hematoxylin-stained and visualized by microscopy. C. Tissue lysates obtained from controls and several Tf-D-LP4-TTs were immunoblotted for p53, Caspase 8, Cyto c, Smac/Diablo, Caspase 3 and Bcl-2. D. Quantitative analysis of immunoblots is shown (n=2-4).
Formalin-fixed, paraffin-embedded sections of control and peptide-TTs were hematoxylin-eosin stained, probed with appropriate antibodies via IHC staining or immunoblotting of cells and tissue extracts. […]
HBSS solution. Cells or tumor tissue were lysed using lysis buffer (50 mM Tris-HCl, pH 7.5, 150 mM NaCl, 1
Xenograft and intracranial-orthotopic mouse mM EDTA, 1.5 mM MgCl2, 10% glycerol, 1% Triton models X-100, supplemented with a protease inhibitor cocktail
(Calbiochem, UK). Cell lysates were then centrifuged at U-87MG glioblastoma cells (3 x106) were inoculated 600xg (10 min at 4°C) and samples (10-40 μg of protein) s.c. into the hind leg ﬂanks of athymic eight-week old were subjected to SDS-PAGE and immunoblotting male nude mice (Envigo). Thirteen days post-inoculation, using various primary antibodies (sources and dilutions tumor volume was measured and calculated (100-130 as detailed in supplementary Table 2), followed by mm3) and mice were randomized into three groups (5 the appropriate HRP-conjugated secondary antibodies mice/group). Each treatment substance was injected into (i.e., anti-mouse, anti-rabbit or anti-goat). Blots the established s,c. tumors using PBS containing 0.26% were developed using enhanced chemiluminescence DMSO or peptide in PBS, 0.26% DMSO/20 μM). The (Biological Industries). Band intensities were analyzed xenografts were injected 20 µl per tumor (2 points) every by densitometry using Multi Gauge software (Fujifilm) two days. Beginning on the day of inoculation, mouse and the values were normalized to the intensities of the weight and tumor volume were monitored twice a week appropriate β-actin signal that served as a loading control. for a period of 23 days using a digital caliper. At the end of the experiments, the mice were sacrificed, tumors were IHC of tumor tissue sections excised and ex vivo weight was determined. Half of each tumor was either fixed in 4% buffered formaldehyde, IHC staining was performed on 5 μm-thick paraffin-embedded and processed for IHC or frozen in formalin-fixed and paraffin-embedded tumor tissue liquid nitrogen for later immunoblot analysis. sections. The sections were deparaffinized by placing To generate an intracranial-orthotopic mouse model, the slides at 60°C for 1 h and using xylene. […]
(Stoelting, Wood Dale, IL). A middle incision was made c, cytochrome c oxidase subunit IVc, GAPDH, Glut1, on the skull and a burr hole was introduced 0.5 mm HK-II, Klf4, LDH, Nestin, NGFR, P53, SMAC/Diablo, anterior to the bregma and 2.5 mm lateral to the midline Sox2, S100b, VDAC1) was performed in 0.01 M citrate using a drill (Stoelting). A 31-gauge needle loaded with buffer (pH 6.0). For CD31, HK-I and Ki-67, antigen 10 µL PBS was used to deliver tumor cells. The needle retrieval was performed in 10 mM Tris-EDTA (pH 9) and tip was inserted into the brain 3 mm deep, relative to the 0.5 M Tris (pH 10), for 30 minutes each at 95-98°C. After skull surface, and maintained at this depth for 2 minutes washing sections in PBS containing 0.1% Triton-X100 before injection of tumor cells. Under sterile conditions, (pH 7.4), non-specific antibody binding was reduced by a 3 µL solution containing U-87MG (8×104) cells was incubating the sections in 10% normal goat serum for 2 injected into the brain parenchyma over a period of […]. After decanting excess serum, sections were incubated
(1 picture or pasted object on this page, not shown here)

On to `CC[C@@H](C)[C@@H](NC(=O)[C@@H](CCCCN)NC(=O)[C@H](NC(=O)[C@@H](CCC(N)=O)NC(=O)[C@@H](CCCNC(=N)N)NC(=O)[C@@H](CC(C)C)NC(=O)CNC(=O)[C@@H](Cc1ccccc1)NC(=O)CNC(=O)[C@@H](Cc1ccc(O)cc1)NC(=O)CNC(=O)[C@@H](CCCCN)NC(=O)[C@H](NC(=O)[C@@H](Cc1ccccc1)NC(=O)[C@H](NC(=O)[C@@H](CC(=O)O)NC(=O)[C@H](N)CCCNC(=N)N)C(C)C)[C@H](C)O)[C@H](C)CC)C(=O)N[C@H](Cc1c[nH]c2ccccc12)C(=O)N[C@H](Cc1ccccc1)C(=O)N[C@H](CCC(N)=O)C(=O)N[C@H](CC(N)=O)C(=O)N[C@H](CCCNC(=N)N)C(=O)N[C@H](CCCNC(=N)N)C(=O)N[C@H](CCSC)C(=O)N[C@H](CCCCN)C(=O)N[C@H](Cc1c[nH]c2ccccc12)C(=O)N[C@H](CCCCN)C(=O)N[C@H](CCCCN)C(=O)O` [D-ΔN-Ter-Antp] (H-[dR][dD][dV][dF][dT][dK]G[dY]G[dF]G[dL][dR][dQ][dI][dK][dI][dW][dF][dQ][dN][dR][dR][dM][dK][dW][dK][dK]-OH; N-terminus and C-terminus assumed), for which the half-maximal inhibitory concentration (IC50) – broadly, the point on the concentration scale where inhibition reaches its midpoint – with LN-18 cells came out at 3000 ± 600 nM.
On to `CC[C@H](C)[C@H](NC(=O)[C@H](C)NC(=O)[C@@H](N)Cc1c[nH]cn1)C(=O)N[C@@H](Cc1ccc(O)cc1)C(=O)N1CCC[C@H]1C(=O)N[C@@H](CCCNC(=N)N)C(=O)N[C@@H](Cc1c[nH]cn1)C(=O)N[C@@H](CO)C(=O)N[C@@H](Cc1c[nH]c2ccccc12)C(=O)N[C@H](C(=O)N[C@@H](Cc1c[nH]c2ccccc12)C(=O)N[C@@H](CCC(=O)O)C(=O)N[C@H](CCCCN)C(=O)N[C@H](CCCCN)C(=O)N[C@H](CC(C)C)C(=O)N[C@H](CCC(=O)O)C(=O)N[C@@H](C(=O)N[C@H](C)C(=O)N[C@@H](C(=O)N[C@H](CC(N)=O)C(=O)N[C@H](CC(C)C)C(=O)N[C@H](C)C(=O)N[C@H](Cc1c[nH]c2ccccc12)C(=O)N[C@@H](C(=O)N[C@H](C)C(=O)NCC(=O)N[C@H](CC(N)=O)C(=O)N[C@H](CO)C(=O)N[C@H](CC(N)=O)C(=O)N[C@@H](CCCCN)C(=O)N[C@@H](Cc1c[nH]c2ccccc12)C(=O)N[C@H](C(=O)N[C@@H](Cc1c[nH]c2ccccc12)C(=O)N[C@@H](CCCCN)C(=O)O)[C@@H](C)O)[C@H](C)O)C(C)C)[C@H](C)O)[C@@H](C)O` [Tf-D-LP4], for which, in test [1], the Bcl-2 level result is reported as “almost undetectable”, the “Caspase 3 expression increase” value is given as > 5 fold, the “Caspase 8 expression increase” value is listed as “about 20 fold” and the “Cyto c expression increase” value is on record as “over 10 fold”. In test [1], the SMAC/DIABLO expression entry is reported as “much higher” and the p53 expression increase entry is reported as “over 12 fold”.
